Data set [1] deals with Streptococcus mutans. The experiment in a line: photodynamic effect of rinsing solution against S. mutans bacterial suspension, photosensitiser concentration series (FIG. 2). Type of data set: cell-based. Particulars: irradiation 300 s; for microorganism content after irradiation: 17-21 J/cm^2. The source says: The corresponding comparative value was approx. 3.2·10^7 CFU/ml. The other bars of the graph each show the reduction in the microorganism content when using the (here: single) photosensitiser at different concentrations, including such concentrations that differ from the disclosed subject matter, in the rinsing solution after effective irradiation for 300 s with between 10 and 45 J/cm^2, in the present case between 17 and 21 J/cm^2.
As the other bars R50, R125 and R250 show, the microorganism content increases again with increasing photosensitiser concentration of 0.5 wt. % (R50), 1.25 wt. % (R125) and 2.5 wt. % (R250), i.e. to approx. 1.6·10^5 CFU/ml, approx. 1.1·10^6 CFU/ml and approx. 2.9·10^6 CFU/ml, respectively. This means that despite the higher concentration of the photosensitiser and the higher number of free radicals to be expected as a result, the efficacy of the disinfection is reduced.

Data set [2] is described as follows: absorption spectrum of the photosensitiser (FIG. 1). The format is physicochemical. Particulars: absorption spectrum A of the photosensitiser in rinsing solution. The source says:
The absorption spectrum A of the photosensitiser used here (dotted line in FIG. 1) has a maximum at a wavelength A of around 445 nm. To activate the photosensitiser, irradiation in the range of this wavelength—or optionally, as in the present example, with a broadband radiation source that also encompasses this range—is therefore effective. […] If more than one photosensitiser is used, this generally results in several absorption maxima to which the radiation source or its radiation spectrum must be adapted.

With `Cc1cc2nc3c(=O)[nH]c(=O)nc-3n(C[C@H](O)[C@H](O)[C@H](O)COP(=O)([O-])O)c2cc1C.[Na+]` [riboflavin 5′-phosphate sodium, Riboflavin 5′-phosphate sodium], the “microorganism content after irradiation” value in data set [1] (0.01 wt. % photosensitiser in rinsing solution (bar R01), growth control approx. 3.2·10^7 CFU/ml) is “approx. 2.1·10^6 CFU/ml”; in data set [1] (0.25 wt. % photosensitiser in rinsing solution (bar R25)), “approx. 2.0·10^4 CFU/ml”; in data set [1] (0.5 wt. % photosensitiser (bar R50)), “approx. 1.6·10^5 CFU/ml”; in data set [1] (1.25 wt. % photosensitiser (bar R125)) it was “approx. 1.1·10^6 CFU/ml”; in data set [1] (2.5 wt. % photosensitiser (bar R250)) it was “approx. 2.9·10^6 CFU/ml”. For the same compound, the “reduction of microorganism content versus growth control” value in data set [1] (0.01 wt. % photosensitiser) is on record as “more than an order of magnitude”; in data set [1] (0.25 wt. % photosensitiser), “more than 3 orders of magnitude”. Moreover, the “microorganism content as fraction of the comparative value” in data set [1] (0.25 wt. % photosensitiser) was “less than 1/1000”. In addition, the absorption maximum wavelength result in data set [2] is “around 445 nm”.

For the origin of these results see patent publication US20260061056A1, “RINSE SOLUTION FOR A PHOTODYNAMIC DISINFECTION” (MANA HEALTH TECHNOLOGIES GMBH, priority 2022, published 2026).
